Assay results: US11214803B2, “Modulators of YAP1 expression” (Ionis Pharmaceuticals, Inc., priority 2019, dated 2022)
Strand notation (5' to 3'): a small letter for the sugar, then the base; units joined by * are phosphorothioate-linked, units joined directly phosphodiester-linked; [ ] holds rarer units or linkages, { } end groups; capitals alone tell only the bases. k = constrained ethyl (cEt); [5mC] = 5-methylcytosine; d = 2'-deoxy (DNA)

Test system: Yap1 mRNA
Experiment: Antisense inhibition of human Yap1 in A-431 cells by cEt gapmers, single dose (Example 1, RTS4814)
Type: cell-based
Outline: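 Free uptake of 2,000 nM 3-10-3 cEt gapmer (16-mer, full phosphorothioate, 5-methylcytosines) in A-431 cells for ~48 h. Yap1 mRNA quantified by qRT-PCR with set RTS4814, normalized to total RNA (RiboGreen), and expressed as % of untreated control; asterisked values target the amplicon region.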

[1] = A-431 cells, 5,000 cells per well, free uptake, 2,000 nM modified oligonucleotide, approx. 48 hours, RTS4814, normalized to RIBOGREEN, Table 3
[2] = Table 2, A-431 cells, free uptake, 2,000 nM, approximately 48 hours, RTS4814, Yap1 mRNA relative to untreated control cells
[3] = Table 1, A-431 cells, free uptake, 2,000 nM, approximately 48 hours, RTS4814, Yap1 mRNA relative to untreated control cells

| Substance | YAP1 (% UTC) [1] [% UTC] | YAP1 (% UTC) [2] [% UTC] | further results |
| --- | --- | --- | --- |
| 715603 (antisense kG*k[5mC]*kA*d[5mC]*dA*dG*dA*dA*dT*dT*d[5mC]*d[5mC]*d[5mC]*kA*kA*kG) [Compound 715603] | 106 | – | – |
| 715485 (antisense kA*kA*kT*dA*d[5mC]*dT*d[5mC]*dT*dT*dT*dG*dG*dA*kA*kA*k[5mC]) [Compound 715485] | – | 72 | – |
| 715545 (kA*k[5mC]*k[5mC]*dA*dA*d[5mC]*dT*dA*d[5mC]*dT*dT*dG*dA*kA*kG*kA; antisense) [Compound 715545] | – | 87 | – |
| 715630 (antisense kA*kA*kG*dA*dG*d[5mC]*d[5mC]*dT*dA*d[5mC]*d[5mC]*dT*dG*kA*k[5mC]*kA) [Compound 715630] | 94 | – | – |
| 715563 (kA*kG*k[5mC]*dA*d[5mC]*dA*d[5mC]*dA*dA*d[5mC]*dT*d[5mC]*dA*kG*kA*k[5mC]; antisense) [Compound 715563] | – | 86 | – |
| 715544 (k[5mC]*kA*kA*d[5mC]*dT*dA*d[5mC]*dT*dT*dG*dA*dA*dG*kA*kA*k[5mC]; antisense) [Compound 715544] | – | – | YAP1 (% UTC) [3]: 128 % UTC |
| 715553 (kA*kG*kA*dA*dA*dT*dA*dG*dG*dA*dA*dG*dT*kT*kG*kT; antisense) [Compound 715553] | – | – | YAP1 (% UTC) [3]: 90 % UTC |
| 715473 (antisense kT*k[5mC]*kT*dT*dT*dA*dT*d[5mC]*dT*dA*dG*d[5mC]*dT*kT*kG*kG) [Compound 715473] | – | 32 | – |
| 715547 (kG*kT*kT*dG*dA*d[5mC]*d[5mC]*dA*dA*d[5mC]*dT*dA*d[5mC]*kT*kT*kG; antisense) [Compound 715547] | – | – | YAP1 (% UTC) [3]: 98 % UTC |
| 715488 (antisense k[5mC]*kT*kA*dT*dT*dA*d[5mC]*dT*dT*d[5mC]*dA*dT*dA*kG*k[5mC]*kT) [Compound 715488] | – | 66 | – |
| 715417 (kG*kA*kG*d[5mC]*dT*d[5mC]*dG*dA*dA*d[5mC]*dA*dT*dG*k[5mC]*kT*kG; antisense) [Compound 715417] | 104 | – | – |
| 715631 (antisense kA*kT*kA*dA*dG*dA*dG*d[5mC]*d[5mC]*dT*dA*d[5mC]*d[5mC]*kT*kG*kA) [Compound 715631] | – | – | YAP1 (% UTC) [3]: 134 % UTC |
| 715429 (k[5mC]*k[5mC]*kT*dG*dA*dG*dT*d[5mC]*dA*dT*dG*dG*d[5mC]*kT*kT*kG; antisense) [Compound 715429] | 62 | – | – |
| 715476 (antisense kA*kA*kA*dG*d[5mC]*dT*dT*dT*d[5mC]*dT*dT*dT*dA*kT*k[5mC]*kT) [Compound 715476] | – | 84 | – |
| 715627 (antisense k[5mC]*kT*kA*d[5mC]*d[5mC]*dT*dG*dA*d[5mC]*dA*dT*dT*dT*kT*kG*kG) [Compound 715627] | 88 | – | – |
| 715514 (kG*kA*kG*d[5mC]*dG*dA*dA*dG*dG*dT*dG*d[5mC]*dG*kG*kA*kG; antisense) [Compound 715514] | – | – | YAP1 (% UTC) [3]: 121 % UTC |
| 715527 (kT*k[5mC]*kA*d[5mC]*dT*dT*dA*d[5mC]*dT*dT*dT*dA*dA*kG*kA*kA; antisense) [Compound 715527] | – | 111 | – |
| 715614 (antisense kA*kA*kA*dT*dT*dA*d[5mC]*dT*dT*dT*dA*dA*dG*k[5mC]*k[5mC]*kA) [Compound 715614] | – | 110 | – |
| 715408 (kG*k[5mC]*kG*dG*d[5mC]*dT*dT*dG*dA*dA*dG*dA*dA*kG*kG*kA; antisense) [Compound 715408] | 60 | – | – |
| 715439 (antisense kG*kG*kT*dT*d[5mC]*dA*dT*dG*dG*d[5mC]*dA*dA*dA*kA*k[5mC]*kG) [Compound 715439] | – | – | YAP1 (% UTC) [3]: 99 % UTC |
| 715552 (kA*kA*kA*dT*dA*dG*dG*dA*dA*dG*dT*dT*dG*kT*kT*kG; antisense) [Compound 715552] | 86 | – | – |
| 715572 (kT*k[5mC]*kA*dG*dA*dG*dA*dA*dG*dA*dA*dA*dG*kG*kT*kA; antisense) [Compound 715572] | – | 97 | – |
| 715601 (antisense kA*kG*kA*dA*dT*dT*d[5mC]*d[5mC]*d[5mC]*dA*dA*dG*d[5mC]*kT*kA*k[5mC]) [Compound 715601] | – | – | YAP1 (% UTC) [3]: 106 % UTC |
| 715469 (antisense kT*kA*kG*d[5mC]*dT*dT*dG*dG*dT*dG*dG*d[5mC]*dA*kG*k[5mC]*k[5mC]) [Compound 715469] | – | – | YAP1 (% UTC) [3]: 94 % UTC |
| 715520 (kT*kT*k[5mC]*dT*dT*dT*d[5mC]*d[5mC]*dA*d[5mC]*dT*d[5mC]*dA*kA*kG*kT; antisense) [Compound 715520] | – | – | YAP1 (% UTC) [3]: 122 % UTC |
| 715525 (kT*kT*kA*d[5mC]*dT*dT*dT*dA*dA*dG*dA*dA*dG*kT*kA*kT; antisense) [Compound 715525] | 100 | – | – |
| 715428 (kT*k[5mC]*k[5mC]*d[5mC]*dA*dT*d[5mC]*d[5mC]*dA*dT*d[5mC]*dA*dG*kG*kA*kA; antisense) [Compound 715428] | – | 106 | – |

| Substance | YAP1 (% UTC) [1] [% UTC] | YAP1 (% UTC) [2] [% UTC] | further results |
| --- | --- | --- | --- |
| 715551 (kA*kT*kA*dG*dG*dA*dA*dG*dT*dT*dG*dT*dT*kG*kA*k[5mC]; antisense) [Compound 715551] | – | 82 | – |
| 715562 (k[5mC]*kA*k[5mC]*dA*d[5mC]*dA*dA*d[5mC]*dT*d[5mC]*dA*dG*dA*k[5mC]*kA*kG; antisense) [Compound 715562] | – | – | YAP1 (% UTC) [3]: 77 % UTC |
| 715605 (antisense k[5mC]*kA*kT*dA*dG*d[5mC]*dA*d[5mC]*dA*dG*dA*dA*dT*kT*k[5mC]*k[5mC]) [Compound 715605] | – | 112 | – |
| 715615 (antisense k[5mC]*kG*kG*dA*dT*dA*dA*dA*dA*dA*dT*dT*dA*k[5mC]*kT*kT) [Compound 715615] | 94 | – | – |
| 715588 (kA*kG*k[5mC]*dA*dG*d[5mC]*dT*dA*dA*d[5mC]*dA*dG*d[5mC]*kT*kT*kG; antisense) [Compound 715588] | 96 | – | – |
| 715472 (antisense kT*kT*kT*dA*dT*d[5mC]*dT*dA*dG*d[5mC]*dT*dT*dG*kG*kT*kG) [Compound 715472] | – | – | YAP1 (% UTC) [3]: 52 % UTC |
| 715424 (kT*kG*k[5mC]*d[5mC]*dA*dT*dG*dT*dT*dG*dT*dT*dG*kT*k[5mC]*kT; antisense) [Compound 715424] | – | – | YAP1 (% UTC) [3]: 58 % UTC |
| 715584 (kG*kG*kT*d[5mC]*dT*dG*dG*dA*dA*d[5mC]*dA*dG*dA*kT*kT*kA; antisense) [Compound 715584] | – | 96 | – |
| 715518 (kT*kT*kT*dG*dG*dG*d[5mC]*dA*dA*dA*dG*dT*dT*k[5mC]*k[5mC]*kT; antisense) [Compound 715518] | – | 60 | – |
| 715426 (kA*kT*k[5mC]*d[5mC]*dA*dT*d[5mC]*dA*dG*dG*dA*dA*dG*kA*kG*kG; antisense) [Compound 715426] | 80 | – | – |
| 715537 (kA*k[5mC]*kT*dT*dG*dG*d[5mC]*dA*d[5mC]*d[5mC]*dA*dA*dA*kA*kG*k[5mC]; antisense) [Compound 715537] | 122 | – | – |
| 715477 (antisense kA*kG*kA*d[5mC]*dA*d[5mC]*dA*dT*dA*d[5mC]*dT*d[5mC]*dT*kA*kG*kT) [Compound 715477] | 61 | – | – |
| 715423 (k[5mC]*k[5mC]*kA*dT*dG*dT*dT*dG*dT*dT*dG*dT*d[5mC]*kT*kG*kA; antisense) [Compound 715423] | 30 | – | – |
| 715611 (antisense k[5mC]*kT*kT*dT*dA*dA*dG*d[5mC]*d[5mC]*dA*d[5mC]*dA*dT*kG*kG*kT) [Compound 715611] | – | 106 | – |
| 715494 (antisense kG*kA*kG*dG*dT*dG*d[5mC]*dT*dA*dG*d[5mC]*dT*dG*kG*kT*kG) [Compound 715494] | – | 46 | – |
| 715437 (antisense k[5mC]*kA*kT*dG*dG*d[5mC]*dA*dA*dA*dA*d[5mC]*dG*dA*kG*kG*kG) [Compound 715437] | – | 89 | – |
| 715407 (kG*kG*k[5mC]*dT*dT*dG*dA*dA*dG*dA*dA*dG*dG*kA*kG*kT; antisense) [Compound 715407] | – | 53 | – |
| 715497 (antisense kA*kA*k[5mC]*d[5mC]*d[5mC]*dT*dT*dG*dA*dA*dA*dA*dT*kA*kA*kG) [Compound 715497] | – | 155 | – |
| 715455 (antisense kT*kG*kA*dT*dA*dG*dG*dT*dG*d[5mC]*d[5mC]*dA*d[5mC]*kT*kG*kT) [Compound 715455] | – | 65 | – |
| 715502 (antisense k[5mC]*k[5mC]*kA*dG*dA*d[5mC]*dT*dT*dA*dA*dT*dT*d[5mC]*kA*kA*kG) [Compound 715502] | – | – | YAP1 (% UTC) [3]: 91 % UTC |
| 715419 (kG*kA*k[5mC]*d[5mC]*dA*dG*dA*dA*dG*dA*dT*dG*dT*k[5mC]*kT*kT; antisense) [Compound 715419] | – | 107 | – |
| 715430 (kA*kT*k[5mC]*d[5mC]*dT*dG*dA*dG*dT*d[5mC]*dA*dT*dG*kG*k[5mC]*kT; antisense) [Compound 715430] | – | – | YAP1 (% UTC) [3]: 118 % UTC |
| 715587 (kT*kG*kA*dA*dA*dA*dG*dG*dT*d[5mC]*dT*dG*dG*kA*kA*k[5mC]; antisense) [Compound 715587] | – | 79 | – |
| 715402 (kA*kG*kG*dA*dG*dT*d[5mC]*dG*dG*dG*d[5mC]*dA*dG*k[5mC]*kT*kT; antisense) [Compound 715402] | 59 | – | – |
| 715484 (antisense kT*kA*k[5mC]*dT*d[5mC]*dT*dT*dT*dG*dG*dA*dA*dA*k[5mC]*k[5mC]*kA) [Compound 715484] | – | – | YAP1 (% UTC) [3]: 123 % UTC |
| 715510 (antisense kA*kT*kT*dT*dG*d[5mC]*dT*dG*dT*dG*d[5mC]*dT*dG*kG*kG*kA) [Compound 715510] | 22 | – | – |
